Laboratory results from patent publication US9199946B2, “Pyrimidinone carboxamide inhibitors of endothelial lipase” (BRISTOL-MYERS SQUIBB COMPANY, priority 2012, dated 2015).

Each compound was assayed against T1, Endothelial lipase (EL) (Homo sapiens, UniProt Q9Y5X9) (assay: Endothelial lipase (EL) enzymatic assay with fluorescent substrate A10070 in DMPG vesicles). Conditions: conditioned media from HT-1080 cells overexpressing endogenous EL; 20 min preincubation at 37° C.; read-out: EL IC50.
T1 construct: HT-1080 cells, which were transformed by RAGE technology (Athersys) to overexpress endogenous EL; endogenous in cells; conditioned medium used as the enzyme source
T1 sequence (Q9Y5X9 21-500): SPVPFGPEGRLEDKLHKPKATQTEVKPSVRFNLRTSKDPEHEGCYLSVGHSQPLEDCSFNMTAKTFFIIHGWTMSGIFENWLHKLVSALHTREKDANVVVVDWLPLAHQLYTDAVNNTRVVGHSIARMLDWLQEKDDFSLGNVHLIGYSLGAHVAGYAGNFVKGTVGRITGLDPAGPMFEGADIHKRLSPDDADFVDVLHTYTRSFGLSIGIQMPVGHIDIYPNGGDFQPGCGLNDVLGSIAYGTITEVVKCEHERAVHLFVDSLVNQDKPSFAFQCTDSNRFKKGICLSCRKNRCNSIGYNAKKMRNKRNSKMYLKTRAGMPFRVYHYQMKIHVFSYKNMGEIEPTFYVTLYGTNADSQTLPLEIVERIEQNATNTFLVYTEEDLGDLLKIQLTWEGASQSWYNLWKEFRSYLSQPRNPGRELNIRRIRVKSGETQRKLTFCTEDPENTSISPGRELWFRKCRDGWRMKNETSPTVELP
Type: biochemical
Method in brief: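 The enzyme source was conditioned medium from HT-1080 cells engineered to overexpress endogenous EL. It was preincubated with compound for 20 min at 37 °C in 50 mM HEPES pH 8.0, 50 mM NaCl, 1 mM CaCl2. Reactions started with DMPG vesicles carrying FRET substrate A10070 (mole fraction 0.05). The rate was taken from the linear slope of fluorescence (ex 488/em 530 nm) over 10 min.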

IC50 [µM]	SMILES
0.659	O=C(N[C@H]1CC[C@@H](c2ccccc2)CC1)c1[nH]c(=O)[nH]c(=O)c1NC1CCCC1 [Example 208, 5-(cyclopentylamino)-2,6-dioxo-N-(cis-4-phenylcyclohexyl)-1,2,3,6-tetrahydropyrimidine-4-carboxamide]
5.28	O=C(N[C@H]1CC[C@@H](c2ccccc2)CC1)c1[nH]c(=O)[nH]c(=O)c1NCc1ccccn1 [Example 225, 2,6-dioxo-N-(cis-4-phenylcyclohexyl)-5-(pyridin-2-ylmethylamino)-1,2,3,6-tetrahydropyrimidine-4-carboxamide]

Continued, compound first:

SMILES	IC50 [µM]
O=C(N[C@H]1CC[C@@H](c2ccccc2)CC1)c1[nH]c(=O)n(CC(F)(F)F)c(=O)c1O [Example 243, 5-hydroxy-2,6-dioxo-N-(cis-4-phenylcyclohexyl)-1-(2,2,2-trifluoroethyl)-1,2,3,6-tetrahydropyrimidine-4-carboxamide]	0.967
Nc1c(C(=O)N[C@@H]2CC[C@H](c3ccc(-c4cnn(CCN5CCOCC5)c4)cc3)C2)[nH]c(=O)[nH]c1=O [Example 164, 5-amino-N-((1R,3S)-3-(4-(1-(2-morpholinoethyl)-1H-pyrazol-4-yl)phenyl)cyclopentyl)-2,6-dioxo-1,2,3,6-tetrahydropyrimidine-4-carboxamide]	0.788
Nc1c(C(=O)NC2CCCc3c2sc2nc[nH]c(=O)c32)[nH]c(=O)[nH]c1=O (stereo not shown) [Example 45, 5-amino-2,6-dioxo-N-(4-oxo-1,4,5,6,7,8-hexahydro[1]benzothieno[2,3-d]pyrimidin-8-yl)-1,2,3,6-tetrahydro-4-pyrimidinecarboxamide]	3.37

Same assay, conditions: range observed in the EL assay; read-out: EL IC50 values

IC50 [µM]	SMILES
≤ 10	O=C(N[C@H]1CC[C@@H](c2ccccc2)CC1)c1[nH]c(=O)[nH]c(=O)c1NCc1ccccc1C(F)(F)F [Example 215, 2,6-dioxo-N-(cis-4-phenylcyclohexyl)-5-(2-(trifluoromethyl)benzylamino)-1,2,3,6-tetrahydropyrimidine-4-carboxamide]
≤ 10	Nc1c(C(=O)N[C@H]2CC[C@@H](NC(=O)Cc3ccccc3)CC2)[nH]c(=O)[nH]c1=O [Example 116, 5-amino-2,6-dioxo-N-(cis-4-(2-phenylacetamido)cyclohexyl)-1,2,3,6-tetrahydropyrimidine-4-carboxamide]
≤ 10	O=C(N[C@H]1CC[C@@H](c2ccccc2)CC1)c1[nH]c(=O)[nH]c(=O)c1NC1CCCC1 [Example 208, 5-(cyclopentylamino)-2,6-dioxo-N-(cis-4-phenylcyclohexyl)-1,2,3,6-tetrahydropyrimidine-4-carboxamide]
≤ 10	O=C(N[C@H]1CC[C@H](c2ccccc2)C1)c1[nH]c(=O)[nH]c(=O)c1O [Example 275, 5-hydroxy-2,6-dioxo-N-((1S,3S)-3-phenylcyclopentyl)-1,2,3,6-tetrahydropyrimidine-4-carboxamide]
≤ 10	Nc1c(C(=O)N[C@H]2CC[C@@H](c3ccccc3)CC2)n(-c2ccc(Cl)c(Cl)c2)c(=O)[nH]c1=O [Example 204, 5-amino-3-(3,4-dichlorophenyl)-2,6 dioxo-N-(cis-4-phenylcyclohexyl)-1,2,3,6-tetrahydropyrimidine-4-carboxamide]
≤ 10	CC(C)Cn1c(=O)[nH]c(C(=O)N[C@H]2CC[C@@H](c3ccccc3)CC2)c(O)c1=O [Example 253, 5-hydroxy-1-isobutyl-2,6-dioxo-N-((1s,4s)-4-phenylcyclohexyl)-1,2,3,6-tetrahydropyrimidine-4-carboxamide]
≤ 10	O=C(N[C@H]1CC[C@@H](c2ccccc2)CC1)c1[nH]c(=O)[nH]c(=O)c1NCc1ccccn1 [Example 225, 2,6-dioxo-N-(cis-4-phenylcyclohexyl)-5-(pyridin-2-ylmethylamino)-1,2,3,6-tetrahydropyrimidine-4-carboxamide]
≤ 10	O=C(N[C@@H]1CC[C@@H](c2ccccc2)C1)c1[nH]c(=O)[nH]c(=O)c1O [Example 272, 5-hydroxy-2,6-dioxo-N-((1R,3R)-3-phenylcyclopentyl)-1,2,3,6-tetrahydropyrimidine-4-carboxamide]
≤ 10	Nc1c(C(=O)NC2CCC(c3cccc(OCc4ccccc4)c3)C2)[nH]c(=O)[nH]c1=O (stereo not shown) [Example 104, 5-amino-N-(3-(3-(benzyloxy)phenyl)cyclopentyl)-2,6-dioxo-1,2,3,6-tetrahydropyrimidine-4-carboxamide]
≤ 10	C[C@H](Nc1c(C(=O)N[C@H]2CC[C@@H](c3ccccc3)CC2)[nH]c(=O)[nH]c1=O)C1CCCCC1 [Example 232, 5-((S)-1-cyclohexylethylamino)-2,6-dioxo-N-(cis-phenylcyclohexyl)-1,2,3,6-tetrahydropyrimidine-4-carboxamide]

Further lines, the compound ahead of its results:

SMILES	IC50 [µM]
COc1ccc2c(c1)CC[C@H]2NC(=O)c1[nH]c(=O)[nH]c(=O)c1N [Example 70, (R)-5-amino-N-(5-methoxy-2,3-dihydro-1H-inden-1-yl)-2,6-dioxo-1,2,3,6-tetrahydropyrimidine-4-carboxamide]	≤ 10
O=C(N[C@H]1CC[C@@H](NC(=O)c2[nH]c(=O)[nH]c(=O)c2O)CC1)c1ccccc1 [Example 260, N-((1s,4s)-4-benzamidocyclohexyl)-5-hydroxy-2,6-dioxo-1,2,3,6-tetrahydropyrimidine-4-carboxamide]	≤ 10
O=C(N[C@H]1CC[C@@H](c2ccccc2)CC1)c1[nH]c(=O)n(CC(F)(F)F)c(=O)c1O [Example 243, 5-hydroxy-2,6-dioxo-N-(cis-4-phenylcyclohexyl)-1-(2,2,2-trifluoroethyl)-1,2,3,6-tetrahydropyrimidine-4-carboxamide]	≤ 10
Nc1c(C(=O)N[C@@H]2CCCc3c(-c4ccccc4)cccc32)[nH]c(=O)[nH]c1=O [Example 112, (R)-5-amino-2,6-dioxo-N-(5-phenyl-1,2,3,4-tetrahydronaphthalen-1-yl)-1,2,3,6-tetrahydropyrimidine-4-carboxamide]	≤ 10
Nc1c(C(=O)N[C@H]2CC[C@H](c3ccc(Cl)c(Cl)c3)C2)[nH]c(=O)[nH]c1=O [Example 69, 5-amino-N-((1S,3S)-3-(3,4-dichlorophenyl)cyclopentyl)-2,6-dioxo-1,2,3,6-tetrahydropyrimidine-4-carboxamide]	≤ 10
Nc1c(C(=O)N[C@@H]2CC(c3ccccc3)c3ccccc32)[nH]c(=O)[nH]c1=O (stereo in doubt) [Example 29, 5-amino-2,6-dioxo-N-((1R,3S)-3-phenyl-2,3-dihydro-1H-inden-1-yl)-1,2,3,6-tetrahydropyrimidine-4-carboxamide]	≤ 10
Nc1c(C(=O)N[C@@H]2CC[C@H](c3ccc(-c4cnn(CCN5CCOCC5)c4)cc3)C2)[nH]c(=O)[nH]c1=O [Example 164, 5-amino-N-((1R,3S)-3-(4-(1-(2-morpholinoethyl)-1H-pyrazol-4-yl)phenyl)cyclopentyl)-2,6-dioxo-1,2,3,6-tetrahydropyrimidine-4-carboxamide]	≤ 10
O=C(N[C@@H]1CCCc2c1cccc2C(F)(F)F)c1[nH]c(=O)[nH]c(=O)c1O [Example 254, (R)-5-hydroxy-2,6-dioxo-N-(5-(trifluoromethyl)-1,2,3,4-tetrahydronaphthalen-1-yl)-1,2,3,6-tetrahydropyrimidine-4-carboxamide]	≤ 10
Nc1c(C(=O)N[C@H]2CC[C@@H](NC(=O)c3ccccc3)CC2)[nH]c(=O)[nH]c1=O [Example 115, 5-amino-N-(cis-4-benzamidocyclohexyl)-2,6-dioxo-1,2,3,6-tetrahydropyrimidine-4-carboxamide]	≤ 10
Nc1c(C(=O)N[C@@H]2CCCc3cc(C(F)(F)F)ccc32)[nH]c(=O)[nH]c1=O [Example 51, (R)-5-amino-2,6-dioxo-N-(6-(trifluoromethyl)-1,2,3,4-tetrahydronaphthalen-1-yl)-1,2,3,6-tetrahydropyrimidine-4-carboxamide]	≤ 10
O=C(N[C@@H]1CC[C@@H](c2ccc(Cl)c(Cl)c2)C1)c1[nH]c(=O)[nH]c(=O)c1O [Example 251, N-((1R,3R)-3-(3,4-dichlorophenyl)cyclopentyl)-5-hydroxy-2,6-dioxo-1,2,3,6-tetrahydropyrimidine-4-carboxamide]	≤ 10
COc1cccc2c1C(NC(=O)c1[nH]c(=O)[nH]c(=O)c1N)CCC2 (stereo not shown) [Example 66, 5-amino-N-(8-methoxy-1,2,3,4-tetrahydronaphthalen-1-yl)-2,6-dioxo-1,2,3,6-tetrahydropyrimidine-4-carboxamide]	≤ 10
Nc1c(C(=O)N[C@H]2CC[C@@H](c3ccc(-c4ccc(Cl)cc4)cc3)C2)[nH]c(=O)[nH]c1=O [Example 170, 5-amino-N-((1S,3R)-3-(4′-chlorobiphenyl-4-yl)cyclopentyl)-2,6-dioxo-1,2,3,6-tetrahydropyrimidine-4 carboxamide]	≤ 10
CS(=O)(=O)N1CCC(NC(=O)c2[nH]c(=O)[nH]c(=O)c2N)c2ccccc21 (single isomer, unassigned; enantiomer b) [Example 196, 5-amino-N-(1-(methylsulfonyl)-1,2,3,4-tetrahydroquinolin-4-yl)-2,6-dioxo-1,2,3,6-tetrahydropyrimidine-4-carboxamide (Enantiomer B)]	≤ 10
Nc1c(C(=O)N[C@@H]2CCN(c3ccccc3)C2)[nH]c(=O)[nH]c1=O [Example 191, (R)-5-amino-2,6-dioxo-N-(1-phenylpyrrolidin-3-yl)-1,2,3,6-tetrahydropyrimidine-4-carboxamide]	≤ 10
O=C(N[C@@H]1CCc2cc(O)ccc21)c1[nH]c(=O)[nH]c(=O)c1O [Example 262, (R)-5-hydroxy-N-(5-hydroxy-2,3-dihydro-1H-inden-1-yl)-2,6-dioxo-1,2,3,6-tetrahydropyrimidine-4-carboxamide]	≤ 10
COC(=O)[C@@H]1C[C@@H](NC(=O)c2[nH]c(=O)[nH]c(=O)c2N)c2ccccc2[C@H]1c1ccccc1 [Example 23, (1R,2R,4R)-methyl 4-(5-amino-2,6-dioxo-1,2,3,6-tetrahydropyrimidine-4-carboxamido)-1-phenyl-1,2,3,4-tetrahydronaphthalene-2-carboxylate]	≤ 10
COc1ccc([C@@H]2CC[C@H](NC(=O)c3[nH]c(=O)[nH]c(=O)c3N)C2)cn1 [Example 79, 5-amino-N-((1S,3R)-3-(6-methoxypyridin-3-yl)cyclopentyl)-2,6-dioxo-1,2,3,6-tetrahydropyrimidine-4-carboxamide]	≤ 10
Nc1c(C(=O)NC2CCCc3c2sc2nc[nH]c(=O)c32)[nH]c(=O)[nH]c1=O (stereo not shown) [Example 45, 5-amino-2,6-dioxo-N-(4-oxo-1,4,5,6,7,8-hexahydro[1]benzothieno[2,3-d]pyrimidin-8-yl)-1,2,3,6-tetrahydro-4-pyrimidinecarboxamide]	≤ 10
